# Data reported in ChEMBL document CHEMBL3044868, “Effect of pre-sowing and pre-emergence glyphosate applications on weedsin stale seedbed cotton” (2009).
# Experiments:
# Format in all cases: functional
# Gossypium hirsutum [1] = experiment: Increase of boll weight in Gossypium hirsutum (cotton) at 2.88 kg a.i./ha as pre-emergence treatment 3 to 4 days after sowing without seedbed preparation measured during harvest time
# Gossypium hirsutum [2] = experiment: Increase of plant height in Gossypium hirsutum (cotton) at 2.88 kg a.i./ha sprayed at 2 to 3 days before sowing without seedbed preparation measured during harvest time
# Gossypium hirsutum [3] = experiment: Increase of seed cotton yield in Gossypium hirsutum (cotton) at 2.88 kg a.i./ha as pre-emergence treatment 3 to 4 days after sowing without seedbed preparation measured during harvest time
# Gossypium hirsutum [4] = experiment: Increase of cotton cover in Gossypium hirsutum (cotton) at 2.88 kg a.i./ha as pre-emergence treatment 3 to 4 days after sowing with seedbed preparation measured 2 weeks after emergence
# Gossypium hirsutum [5] = experiment: Increase of cotton cover in Gossypium hirsutum (cotton) at 2.88 kg a.i./ha as pre-emergence treatment 3 to 4 days after sowing without seedbed preparation measured 2 weeks after emergence
# Gossypium hirsutum [6] = experiment: Increase of plant height in Gossypium hirsutum (cotton) at 2.88 kg a.i./ha as pre-emergence treatment 3 to 4 days after sowing without seedbed preparation measured during harvest time
# Gossypium hirsutum [7] = experiment: Increase of boll weight in Gossypium hirsutum (cotton) at 2.88 kg a.i./ha sprayed at 2 to 3 days before sowing without seedbed preparation measured during harvest time
# Gossypium hirsutum [8] = experiment: Increase of seed cotton yield in Gossypium hirsutum (cotton) at 2.88 kg a.i./ha sprayed at 2 to 3 days before sowing without seedbed preparation measured during harvest time
# Gossypium hirsutum [9] = experiment: Increase of seed cotton yield in Gossypium hirsutum (cotton) at 2.88 kg a.i./ha as pre-emergence treatment 3 to 4 days after sowing with seedbed preparation measured during harvest time
# Gossypium hirsutum [10] = experiment: Increase of plant height in Gossypium hirsutum (cotton) at 2.88 kg a.i./ha as pre-emergence treatment 3 to 4 days after sowing with seedbed preparation measured during harvest time
# Gossypium hirsutum [11] = experiment: Increase of boll weight in Gossypium hirsutum (cotton) at 2.88 kg a.i./ha as pre-emergence treatment 3 to 4 days after sowing with seedbed preparation measured during harvest time
# Gossypium hirsutum [12] = experiment: Increase of cotton cover in Gossypium hirsutum (cotton) at 2.88 kg a.i./ha sprayed at 2 to 3 days before sowing without seedbed preparation measured 2 weeks after emergence
smiles,measurement,setting,value
O=C(O)CNCP(=O)(O)O [GLYPHOSATE],Activity,Gossypium hirsutum [1],5.9 g
same,Activity,Gossypium hirsutum [2],90.7 cm
same,Crop_yield,Gossypium hirsutum [3],5.5 tons/ha
same,Activity,Gossypium hirsutum [4],7%
same,Activity,Gossypium hirsutum [5],16.3%
same,Activity,Gossypium hirsutum [6],91.1 cm
same,Activity,Gossypium hirsutum [7],5.2 g
same,Crop_yield,Gossypium hirsutum [8],6 tons/ha
same,Crop_yield,Gossypium hirsutum [9],4.8 tons/ha
same,Activity,Gossypium hirsutum [10],91.5 cm
same,Activity,Gossypium hirsutum [11],4.3 g
same,Activity,Gossypium hirsutum [12],11.7%
